{"source": "patent US6632829B2", "about": "“Sulfonamides and derivatives thereof that modulate the activity of endothelin” (Texas Biotechnology Corp., priority 1996, dated 2003)", "key": {"[1]": {"test_system": "isolated vascular strips", "conditions": "contractile agent; cited from earlier work"}, "[2]": {"biological_target": "ETA receptor", "conditions": "cited from earlier work"}, "[3]": {"test_system": "ETB receptors", "conditions": "at concentrations up to 100 μM; cited from earlier work"}, "[4]": {"biological_target": "T1, human ETA receptors (Homo sapiens, UniProt P25101)", "T1 construct": "endogenous in cells; host or cells: TE 671 cells (ATCC HTB 139), membrane preparation", "T1 sequence (P25101 21-427)": "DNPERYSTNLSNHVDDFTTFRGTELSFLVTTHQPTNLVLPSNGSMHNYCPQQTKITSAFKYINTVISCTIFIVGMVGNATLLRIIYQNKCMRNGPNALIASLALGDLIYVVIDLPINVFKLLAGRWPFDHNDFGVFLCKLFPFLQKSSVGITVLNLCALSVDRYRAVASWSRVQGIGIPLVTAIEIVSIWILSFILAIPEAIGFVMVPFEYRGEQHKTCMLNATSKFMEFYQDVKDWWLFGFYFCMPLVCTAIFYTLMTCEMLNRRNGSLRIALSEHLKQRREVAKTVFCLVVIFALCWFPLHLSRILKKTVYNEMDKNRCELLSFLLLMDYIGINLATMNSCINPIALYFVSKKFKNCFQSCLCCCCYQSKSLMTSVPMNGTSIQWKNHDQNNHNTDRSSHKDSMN", "assay": "Endothelin binding inhibition, Binding Test #1: competition with 125I-ET-1 for ETA receptors on TE 671 cell membranes", "conditions": "incubation at 24° C. (values marked †)"}, "[5]": {"biological_target": "T2, human ETB receptor (Homo sapiens, UniProt P24530)", "T2 construct": "expressed in transfected cells; host or cells: COS7 cells", "T2 sequence (P24530 27-442)": "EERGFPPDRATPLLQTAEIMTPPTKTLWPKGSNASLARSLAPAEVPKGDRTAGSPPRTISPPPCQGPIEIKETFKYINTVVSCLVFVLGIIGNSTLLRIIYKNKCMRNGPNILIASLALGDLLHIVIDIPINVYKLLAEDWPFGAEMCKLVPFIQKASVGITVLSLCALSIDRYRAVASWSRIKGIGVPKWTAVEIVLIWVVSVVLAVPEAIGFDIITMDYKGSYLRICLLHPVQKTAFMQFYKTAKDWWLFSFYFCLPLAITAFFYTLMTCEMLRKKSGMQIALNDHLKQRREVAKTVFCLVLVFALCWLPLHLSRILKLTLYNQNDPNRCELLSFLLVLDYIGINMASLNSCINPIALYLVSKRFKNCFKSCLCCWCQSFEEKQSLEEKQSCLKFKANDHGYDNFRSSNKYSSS", "assay": "Endothelin binding inhibition, Binding Test #2: competition with 125I-ET-1 for ETB receptors on transfected COS7 cell membranes", "conditions": "incubation at 24° C. (values marked †)", "how_it_was_run": "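Membranes from COS7 cells transfected with human ETB receptor, prepared in HEPES pH 7.4 with aprotinin, MnCl2/DNase treatment at 37° C for 30 min. Test compounds compete with 125I-labeled ET-1 for receptor binding; membrane used at 1 μg/50 μL binding buffer.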"}}, "note": "Read-outs that look alike come from different tables or passages of the source.", "data": [{"molecule": "endothelin-1", "values": [{"measurement": "EC50", "setting": "[1]", "result": 0.4, "unit": "nM"}]}, {"molecule": "cyclo(D-Glu-L-Ala-allo-D-Ile-L-Leu-D-Trp) [BE-18257B]", "values": [{"measurement": "IC50", "setting": "[2]; aortic smooth muscle", "result": 1400, "unit": "nM"}, {"measurement": "IC50", "setting": "[2]; cultured aortic smooth muscle cells", "result": 500, "unit": "nM"}, {"measurement": "IC50", "setting": "[2]; ventricle membranes", "result": 800, "unit": "nM"}, {"measurement": "inhibition of binding", "setting": "[3]", "result": "fails to inhibit binding"}]}, {"molecule": "Cc1noc(NS(=O)(=O)c2ccsc2C(=O)Nc2c(C)c(C)c(C)c(C)c2C)c1Cl", "note": "[N-(4-chloro-3-methyl-5-isoxazolyl)-2-(pentamethylphenylaminocarbonyl)thiophene-3-sulfonamide]", "values": [{"measurement": "IC50", "setting": "[4]", "result": 29.9, "unit": "nM"}, {"measurement": "IC50", "setting": "[5]", "result": 31000, "unit": "nM"}, {"measurement": "melting point", "result": "196 to 198", "unit": "°C"}]}]}
